Test results published in patent US4988604A, “High contrast photographic element including an aryl sulfonamidophenyl hydrazide containing both thio and ethyleneoxy groups” (Eastman Kodak Company, priority 1990, dated 1991).

How the values were obtained:
[1] = photographic performance of coatings containing nucleator: relative speed, dot quality, contrast (Example 1); settings: for Relative Speed: incorporated booster 64.6 mg/m^2, 1 minute at 35° C., pH 10.5; for DQ (contact screen exposed halftone dot quality): rated on a scale, 5 is excellent; for photographic speed (in words): comparison of tests of Table I
Experimental: Each coating used in obtaining the data provided in this example was prepared on a polyester support, using a monodispersed 0.24 μm AgBrI (2.5 mol % iodide) iridium-doped emulsion at 3.51 g/m^2 Ag, 2.54 g gel/m^2, and 1.08 g latex/m^2 where the latex is a copolymer of methyl acrylate, 2-acrylamido-2-methylpropane sulfonic acid, and 2-acetoacetoxyethylmethylacrylate. The silver halide emulsion was spectrally sensitized with 214 mg/Ag mol of anhydro-5,5'-dichloro-9-ethyl-3,3'-di-(3-sulfopropyl) oxacarbocyanine hydroxide, triethylene salt and the emulsion layer was overcoated with gelatin containing polymethylmethacrylate beads. The nucleating agent was added as a methanol solution to the emulsion melts at a level in millimoles (mM) per mole of silver as hereinafter indicated. An "incorporated booster" was added as a methanol solution in an amount of 64.6 milligrams per square meter of photographic element. The compound employed as the "incorporated booster" is represented by the formula: [drawing 8] where Pr represents n-propyl. Coatings were exposed for five seconds to a 3000° K. tungsten light source and processed for 1 minute at 35° C. in the developer solution.
To prepare the developer solution, a concentrate was prepared from the following ingredients:
The concentrate was diluted at a ratio of one part of concentrate to two parts of water to produce a working strength developing solution with a pH of 10.5.
*DQ = contact screen exposed halftone dot quality rated on a scale where
is poor and 5 is excellent.

[2] = chemical spread: dot diameter growth rate of coatings containing nucleator (Example 2); settings: for Dot Diameter Growth Rate: 10 to 60 seconds development
Description: Coatings similar to those described in Example 1 were examined for differences in the degree of image spreading, so-called chemical spread, that is inherent to high contrast, nucleation processes. The films were exposed 5 seconds with 3000K tungsten light through a 90%, 52 line per centimeter, round dot tint mask to produce hard 10% dots upon development for about 10 seconds in the developer described in Example 1. With extended development beyond 10 seconds (typical development times in practice are 30 to 60 seconds), the nucleation process entails fogging of unexposed silver halide at the dot edges and, in turn, causes the dot to grow in size. The growth of the dot was measured by monitoring the change in density of the developing tint with time from 10 to 60 seconds and converting the measured density to the equivalent dot diameter using the well known relation between integrated halftone density and dot size.

SMILES: CC(C)c1ccc(C(C)C)c(S(=O)(=O)Nc2ccc(NNC=O)cc2)c1 [Control A]
- Relative Speed ([1]; nucleator 1.0 mM/Ag mole): 87
- DQ (contact screen exposed halftone dot quality) ([1]; nucleator 1.0 mM/Ag mole): 3.5
- Relative Speed ([1]; nucleator 2.0 mM/Ag mole): 100
- DQ (contact screen exposed halftone dot quality) ([1]; nucleator 2.0 mM/Ag mole): 4
- Dot Diameter Growth Rate ([2]; nucleator 2.0 mM/Ag mole): 0.60 micrometers/sec

SMILES: CCCCCCCCSCC(=O)Nc1c(C)ccc(S(=O)(=O)Nc2ccc(NNC=O)cc2)c1C [Control C]
- photographic speed (in words) [1]: significantly lowers the photographic speed relative to the non-thio control of Test A
- Relative Speed ([1]; nucleator 1.0 mM/Ag mole): 68
- DQ (contact screen exposed halftone dot quality) ([1]; nucleator 1.0 mM/Ag mole): 3.5
- Relative Speed ([1]; nucleator 2.0 mM/Ag mole): 68
- DQ (contact screen exposed halftone dot quality) ([1]; nucleator 2.0 mM/Ag mole): 3.5

SMILES: CCCCCCCCOCCOCCOCCOCCSCC(=O)Nc1c(C)ccc(S(=O)(=O)Nc2ccc(NNC=O)cc2)c1C [Compound I-6]
- screen-exposed halftone dot quality (in words) ([1]; Example 1): significant improvement in the screen-exposed halftone dot quality
- photographic speed (in words) [1]: the same speed was achieved in Test 1 even though the molar concentration of nucleator was one quarter of that used in Control Test B
- Relative Speed ([1]; nucleator 0.5 mM/Ag mole): 100
- DQ (contact screen exposed halftone dot quality) ([1]; nucleator 0.5 mM/Ag mole): 4.5
- Relative Speed ([1]; nucleator 0.75 mM/Ag mole): 107
- DQ (contact screen exposed halftone dot quality) ([1]; nucleator 0.75 mM/Ag mole): 4.5
- dot diameter growth rate or chemical spread (in words) ([2]; Test 4 (one quarter the concentration) compared with Control Test A^1): much less
- Dot Diameter Growth Rate ([2]; nucleator 0.50 mM/Ag mole): 0.30 micrometers/sec
- Dot Diameter Growth Rate ([2]; nucleator 1.0 mM/Ag mole): 0.41 micrometers/sec
